From patent US20210177803A1, “NEW PHARMACEUTICAL USE FOR THE TREATMENT OF HEART FAILURE” (Novartis AG, priority 2018, published 2021)

Legend:
[1] = tested on: patients hospitalized for acute HFrEF; assay: PIONEER-HF study: clinical outcomes; format: in vivo, human; details: 8 weeks; LCZ696 n = 440, enalapril n = 441
Method: The study rational and design is described in by Velazquez E J, et al. .in Am.
(§1) The starting dose and all subsequent doses were selected to optimize the highest tolerated dose based on a systolic blood pressure (SBP) algorithm.
(§2) Inclusion Criteria: • Patients ≥18 y of age with the capacity to provide written informed consent. • Currently hospitalized for a primary diagnosis of HF, including symptoms and signs of fluid overload. • Eligible patients will be randomized no earlier than 24 hours and up to ten days after presentation while still hospitalized as long as meet the following definition of stable status: • SBP≥100 mm Hg for the preceding 6 hours prior to randomization; no symptomatic hypotension • No increase (intensification) in i.v. diuretic dose within last 6 hours prior to randomization • No i.v. inotropic drugs for 24 hours prior to randomization • No i.v. vasodilators including nitrates within last 6 hours prior to randomization • Left ventricular EF 40% within the past 6 m (including current hospitalization) using echocardiography, multi gated acquisition scan (MUGA), CT scanning, MRI or ventricular angiography, provided no subsequent study documented an EF of >40% • Elevated NT-proBNP≥1600 pg/mL OR BNP≥400 pg/mL during current hospitalization.

[2] = tested on: patients hospitalized for acute HFrEF
Method: as §1, §2

With CCOC(=O)[C@H](CCc1ccccc1)N[C@@H](C)C(=O)N1CCC[C@H]1C(=O)O [enalapril, reference compound] the “Additional HF drug” value [1] was 83 (18.8) number (%), the “Composite (death, rehospitalization for HF, LVAD implantation, or listing for cardiac transplant)” value [1] was 74 (16.8) number (%) and the Death [1] was 15 (3.4) number (%). The “Expanded composite (composite plus unplanned outpatient visits requiring IV diuretics, or increase >50% in diuretic dose)” value [1] was 275 (62.4) number (%), the HF rehospitalization [1] was 61 (13.8) number (%) and the “Increase in diuretic dose >50%” value [1] was 239 (54.2) number (%). The LVAD implantation [1] was 1 (0.2) number (%), the “Listing for cardiac transplant” value [1] was 0 (0.0) number (%) and the “Unplanned outpatient visits requiring intravenous diuretics” value [1] was 2 (0.5) number (%). It also gave a Hyperkalemia ([2]; 8 weeks) of 9.3%, a Symptomatic hypotension ([2]; 8 weeks) of 9.1% and a Worsening renal function ([2]; 8 weeks) of 14.7%. For the same compound, the “Angioedema in patients who identified as black (in words)” value ([2]; black patients) was “angioedema were observed”, the “Angioedema events (number in words)” value ([2]; blinded adjudication) was “six” and the Angioedema ([2]; blinded adjudication, 8 weeks) was 1.4%. For the same compound, the “Patients in whom the maximum target dose had been achieved” value ([2]; by the week 8 study visit) was 62% and the “Study drug prematurely discontinued prior to 8 weeks” value ([2]; excluding discontinuation due to death) was 20.3%.
